Our source for the EC50 and inhibition values is US20240124444A1 (Celgene Corporation, priority 2020, published 2024).

The structures appear in SMILES notation. Read-outs that look alike come from different tables or passages of the source.

This experiment concerns C. parvum strain UGA1. Kind of experiment: C. parvum growth inhibition assay (Nluc luminescence in HCT-8 cells). The format is cell-based, Cryptosporidium parvum. Conditions: Cryptosporidium parvum; for EC50: HCT-8, 48 h, C. parvum growth inhibition in HCT-8 cells, 48 hours, 6 concentrations 10-0.04 μM; for inhibition at 1 µM / inhibition at 10 µM: HCT-8; for inhibition at 1 µM: read-out: % inh @ 1 uM C. parvum; for inhibition at 10 µM: read-out: % inh @ 10 uM C. parvum.

[1] abbreviates: single point inhibition @ 10 uM.
Setting [2] is: single point inhibition at 1 uM.
The mark [3] stands for this setting: single point inhibition at 10 uM.

For orientation: EC50 means the concentration giving half of the maximal effect. Read a high EC50 as weaker potency. The molecule `Cn1c(C(F)(F)F)cc2cnc(NC(=O)C3CC3)cc21` [Example 77, N-(1-methyl-2-(trifluoromethyl)-1H-pyrrolo[3,2-c]pyridin-6-yl)cyclopropanecarboxamide] registered a 50% effective concentration (EC50) of over 1 µM.

As for `CC(C)n1cc(C(=O)Nc2cc3[nH]c(-c4ccnc(OCCC(F)(F)F)n4)cc3cn2)cn1` [Example 175, 1-isopropyl-N-(2-(2-(3,3,3-trifluoropropoxy)pyrimidin-4-yl)-1H-pyrrolo[3,2-c]pyridin-6-yl)-1H-pyrazole-4-carboxamide], the inhibition at 1 µM (single point inhibition @ 1 uM) lay within 0 to 33%. In addition, the inhibition at 10 µM under setting [1] was 67 to 100%.

Take `N#Cc1cc2cnc(Nc3cnn(C4CCOCC4)c3)cc2[nH]1` [Example 151, 6-(1-(tetrahydro-2H-pyran-4-yl)-1H-pyrazol-4-ylamino)-1H-pyrrolo[3,2-c]pyridine-2-carbonitrile]: the inhibition at 1 µM (single point inhibition @ 1 uM) was in the range of 0 to 33%. Besides, under setting [1], the inhibition at 10 µM lay in the range of 67 to 100%. Consider `Cc1cc(-c2cc3cnc(NC(=O)C4CC4)cc3n2C(C)C)ccn1` [Example 329, N-(1-isopropyl-2-(2-methylpyridin-4-yl)-1H-pyrrolo[3,2-c]pyridin-6-yl)cyclopropanecarboxamide], for which the inhibition at 1 µM under setting [2] lay within 0 to 33%. Further, the inhibition at 10 µM under setting [3] is 0 to 33%. For the molecule `Cc1cc(-c2cc3cnc(NC(=O)[C@H]4C[C@H](O)C4)cc3[nH]2)ccn1` [Example 187, (1r,3r)-3-hydroxy-N-(2-(2-methylpyridin-4-yl)-1H-pyrrolo[3,2-c]pyridin-6-yl)cyclobutanecarboxamide], the inhibition at 1 µM (single point inhibition @ 1 uM) fell in the range of 33 to 66%. Besides, the inhibition at 10 µM under setting [1] lay within 67 to 100%.

On to `CCOc1nccc(-c2cc3cnc(NC(=O)c4ccc(OCCOC)c(OC)c4)cc3[nH]2)n1` [Example 249, N-(2-(2-ethoxypyrimidin-4-yl)-1H-pyrrolo[3,2-c]pyridin-6-yl)-3-methoxy-4-(2-methoxyethoxy)benzamide], for which the inhibition at 1 µM under setting [2] was 0 to 33%. Moreover, under setting [3], the inhibition at 10 µM fell in the range of 0 to 33%.

As to `FC(F)(F)CNc1cc(-c2cc3cnc(NC4CCOCC4)cc3[nH]2)ccn1` [Example 363, N-(tetrahydro-2H-pyran-4-yl)-2-(2-(2,2,2-trifluoroethylamino)pyridin-4-yl)-1H-pyrrolo[3,2-c]pyridin-6-amine], the concentration giving a half-maximal response (EC50) is under 0.5 µM. Take `O=C(Nc1cc2[nH]c(-c3cnc(C(F)(F)F)s3)cc2cn1)C1CC1` [Example 103, N-(2-(2-(trifluoromethyl)thiazol-5-yl)-1H-pyrrolo[3,2-c]pyridin-6-yl)cyclopropanecarboxamide]: the EC50 is over 1 µM.

Regarding `CC(C)c1nccc(-c2cc3cnc(NC4CCOCC4)cc3n2C)n1` [Example 391, 2-(2-isopropylpyrimidin-4-yl)-1-methyl-N-(tetrahydro-2H-pyran-4-yl)-1H-pyrrolo[3,2-c]pyridin-6-amine], the EC50 is over 1 µM. As to `Cc1c(C(=O)Nc2cc3[nH]c(-c4ccncc4)cc3cn2)cnn1C` [Example 166, 1,5-dimethyl-N-(2-(pyridin-4-yl)-1H-pyrrolo[3,2-c]pyridin-6-yl)-1H-pyrazole-4-carboxamide], the inhibition at 1 µM (single point inhibition @ 1 uM) was 0 to 33%. Under setting [1], the inhibition at 10 µM lay in the range of 67 to 100%.

Consider `CCOc1nccc(-c2cc3cnc(NC(=O)c4cn(CC5CCCO5)nc4C)cc3[nH]2)n1` (stereo in doubt) [Example 322, (S)-N-(2-(2-ethoxypyrimidin-4-yl)-1H-pyrrolo[3,2-c]pyridin-6-yl)-3-methyl-1-((tetrahydrofuran-2-yl)methyl)-1H-pyrazole-4-carboxamide], for which the inhibition at 1 µM under setting [2] lay in the range of 0 to 33%. For the same molecule, the inhibition at 10 µM under setting [3] is 0 to 33%. Take `Cc1c[nH]c2cc(NC(=O)C3CC3)ncc12` [Example 115, N-(3-methyl-1H-pyrrolo[3,2-c]pyridin-6-yl)cyclopropanecarboxamide]: the EC50 is over 1 µM. For `Cn1cc(C(=O)Nc2cc3[nH]c(-c4ccnc(C(F)(F)F)c4)cc3cn2)cn1` [Example 284, 1-methyl-N-(2-(2-(trifluoromethyl)pyridin-4-yl)-1H-pyrrolo[3,2-c]pyridin-6-yl)-1H-pyrazole-4-carboxamide], under setting [2], the inhibition at 1 µM was 0 to 33%. Further, under setting [3], the inhibition at 10 µM was 0 to 33%. As to `Cc1cc(-c2cc3cnc(NC(=O)c4cccc5[nH]ncc45)cc3[nH]2)ccn1` [Example 289, N-(2-(2-methylpyridin-4-yl)-1H-pyrrolo[3,2-c]pyridin-6-yl)-1H-indazole-4-carboxamide], under setting [2], the inhibition at 1 µM lay within 0 to 33%. Moreover, the inhibition at 10 µM under setting [3] was in the range of 0 to 33%. Regarding `O=C(Nc1cc2[nH]c(C(F)(F)F)cc2cn1)C1CCOCC1` [Example 105, N-(2-(trifluoromethyl)-1H-pyrrolo[3,2-c]pyridin-6-yl)tetrahydro-2H-pyran-4-carboxamide], the EC50 was over 1 µM.

For `COCCn1cc(Nc2cc3[nH]c(-c4ccncc4)cc3cn2)cn1` [Example 192, N-(1-(2-methoxyethyl)-1H-pyrazol-4-yl)-2-(pyridin-4-yl)-1H-pyrrolo[3,2-c]pyridin-6-amine], under “single point inhibition @ 1 uM”, the inhibition at 1 µM was in the range of 33 to 66%. Also, the inhibition at 10 µM under setting [1] was 67 to 100%. Regarding `FC(F)(F)CNc1nccc(-c2cc3cnc(NC4CCC4)cc3[nH]2)n1` [Example 373, N-cyclobutyl-2-(2-(2,2,2-trifluoroethylamino)pyrimidin-4-yl)-1H-pyrrolo[3,2-c]pyridin-6-amine], the EC50 fell in the range of 0.5 to 1 µM. The same measure, in the same setting: the figure for `COC(=O)Nc1cc2[nH]c(C(F)(F)F)cc2cn1` [Example 107, methyl 2-(trifluoromethyl)-1H-pyrrolo[3,2-c]pyridin-6-ylcarbamate] is over 1 µM.

`O=C(Nc1cc2c(cn1)cc(C(F)(F)F)n2CCO)C1CC1` [Example 116, N-(1-(2-hydroxyethyl)-2-(trifluoromethyl)-1H-pyrrolo[3,2-c]pyridin-6-yl)cyclopropanecarobxamide] had an EC50 of over 1 µM. In the case of `Cc1cc(-c2cc3cnc(NC(=O)C4CCC4)cc3[nH]2)ncn1` [Example 98, N-(2-(6-methylpyrimidin-4-yl)-1H-pyrrolo[3,2-c]pyridin-6-yl)cyclobutanecarboxamide], the EC50 was over 1 µM. Take `Cn1cc(C(=O)Nc2cc3[nH]c(-c4cc(C(F)(F)F)ncn4)cc3cn2)cn1` [Example 254, 1-methyl-N-(2-(6-(trifluoromethyl)pyrimidin-4-yl)-1H-pyrrolo[3,2-c]pyridin-6-yl)-1H-pyrazole-4-carboxamide]: the inhibition at 1 µM under setting [2] lay within 0 to 33%. Besides, the inhibition at 10 µM under setting [3] was 0 to 33%. In turn, `N#Cc1cc(-c2cc3cnc(Nc4cccc(-c5nnc[nH]5)c4)cc3[nH]2)ccn1` [Example 79, 4-(6-(3-(4H-1,2,4-triazol-3-yl)phenylamino)-1H-pyrrolo[3,2-c]pyridin-2-yl)picolinonitrile] gave an EC50 of over 1 µM. Moreover, the inhibition at 1 µM (single point inhibition @ 1 uM) fell in the range of 33 to 66%. For the same molecule, under setting [1], the inhibition at 10 µM was 67 to 100%. For the molecule `CC(C)CNc1cc2[nH]c(-c3cccnc3)cc2cn1` [Example 273, N-isobutyl-2-(pyridin-3-yl)-1H-pyrrolo[3,2-c]pyridin-6-amine], the inhibition at 1 µM under setting [2] was in the range of 0 to 33%. In addition, under setting [3], the inhibition at 10 µM fell in the range of 0 to 33%. Turning to `Cc1cc(C(=O)Nc2cc3[nH]c(-c4ccnc(NCC(F)(F)F)c4)cc3cn2)nn1C` [Example 305, 1,5-dimethyl-N-(2-(2-(2,2,2-trifluoroethylamino)pyridin-4-yl)-1H-pyrrolo[3,2-c]pyridin-6-yl)-1H-pyrazole-3-carboxamide], the inhibition at 1 µM under setting [2] lay within 0 to 33%. The inhibition at 10 µM under setting [3] lay in the range of 0 to 33%. In turn, `O=C(Nc1cc2[nH]c(-c3ccnc(C(F)(F)F)n3)cc2cn1)[C@H]1C[C@H](O)C1` [Example 92, (1r,3r)-3-hydroxy-N-(2-(2-(trifluoromethyl)pyrimidin-4-yl)-1H-pyrrolo[3,2-c]pyridin-6-yl)cyclobutanecarboxamide] yielded a 50% effective concentration (EC50) of over 1 µM. The inhibition at 1 µM (single point inhibition @ 1 uM) was in the range of 33 to 66%. Besides, under setting [1], the inhibition at 10 µM lay within 0 to 33%. With `Cc1cc(-c2cc3cnc(NC4CCOCC4)cc3[nH]2)nc(C)n1` [Example 393, 2-(2,6-dimethylpyrimidin-4-yl)-N-(tetrahydro-2H-pyran-4-yl)-1H-pyrrolo[3,2-c]pyridin-6-amine], the EC50 is over 1 µM.

On to `c1nc(NC2CCOCC2)cc2[nH]c(C3CCC3)cc12` [Example 121, 2-cyclobutyl-N-(tetrahydro-2H-pyran-4-yl)-1H-pyrrolo[3,2-c]pyridin-6-amine], for which the EC50 was over 1 µM. In the case of `O=C(Nc1cc2[nH]c(-c3ccnc(C(F)(F)F)n3)cc2cn1)C1CC(O)C1` (stereo not drawn) [Example 247, (1s,3s)-3-hydroxy-N-(2-(2-(trifluoromethyl)pyrimidin-4-yl)-1H-pyrrolo[3,2-c]pyridin-6-yl)cyclobutanecarboxamide], the inhibition at 1 µM under setting [2] was in the range of 33 to 66%. Moreover, the inhibition at 10 µM under setting [3] lay within 0 to 33%. Turning to `Cn1cc(C(=O)Nc2cc3[nH]c(-c4cc(C(F)(F)F)ccn4)cc3cn2)cn1` [Example 299, 1-methyl-N-(2-(4-(trifluoromethyl)pyridin-2-yl)-1H-pyrrolo[3,2-c]pyridin-6-yl)-1H-pyrazole-4-carboxamide], the inhibition at 1 µM under setting [2] was in the range of 0 to 33%. Also, the inhibition at 10 µM under setting [3] lay within 0 to 33%. The molecule `Cn1c(-c2ccnc(NCC(F)(F)F)n2)cc2cnc(NC(C)(C)C)cc21` [Example 384, N-tert-butyl-1-methyl-2-(2-(2,2,2-trifluoroethylamino)pyrimidin-4-yl)-1H-pyrrolo[3,2-c]pyridin-6-amine] displayed an EC50 of over 1 µM. For the molecule `Cc1cc(-c2cc3cnc(NC(=O)C4CCCOC4)cc3[nH]2)ccn1` (stereo not drawn) [Example 155, N-(2-(2-methylpyridin-4-yl)-1H-pyrrolo[3,2-c]pyridin-6-yl)tetrahydro-2H-pyran-3-carboxamide], the inhibition at 1 µM (single point inhibition @ 1 uM) is 0 to 33%. The inhibition at 10 µM under setting [1] was in the range of 67 to 100%.
